Values joined by “and” are separate entries in the source; they are usually repeats but may differ in a detail not shown here. Equal entries are not always repeated. Inconclusive results and toxic doses are left out. Rule for the calls: active = survival T/C of 150% or more; inactive = T/C below 125% in these data.
Tested on: B6C3F1 mice, ip Sarcoma M5076, median survival T/C
Assay: NCI In Vivo Anticancer Drug Screen. Data for tumor model Sarcoma M5076 (intraperitoneal) in B6C3F1 mice
Conditions: endpoint: median survival time, schedule: Q04DX004 (ip), higher = longer survival
Summary of the method: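 Survival measured in treated (T) and vehicle control (C) mice with transplantable tumour; result given as T divided by C.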

[1] = dose: 25.0 mg/kg/injection, vehicle: saline with Tween-80
[2] = dose: 37.5 mg/kg/injection, vehicle: saline with Tween-80
[3] = dose: 50.0 mg/kg/injection, vehicle: saline with Tween-80
[4] = dose: 100.0 mg/kg/injection, vehicle: saline with Tween-80
[5] = dose: 200.0 mg/kg/injection, vehicle: saline with Tween-80
[6] = dose: 50.0 mg/kg/injection, vehicle: Klucel (hydroxypropylcellulose) (HPC)
[7] = dose: 100.0 mg/kg/injection, vehicle: Klucel (hydroxypropylcellulose) (HPC)
[8] = dose: 200.0 mg/kg/injection, vehicle: Klucel (hydroxypropylcellulose) (HPC)
[9] = dose: 400.0 mg/kg/injection, vehicle: Klucel (hydroxypropylcellulose) (HPC)
[10] = dose: 800.0 mg/kg/injection, vehicle: Klucel (hydroxypropylcellulose) (HPC)
[11] = dose: 12.5 mg/kg/injection, vehicle: saline with Tween-80
[12] = dose: 400.0 mg/kg/injection, vehicle: saline with Tween-80

Measured: T/C

CCN(CC)Cc1cc2[nH]c3c4ccc(Cl)cc4ncc3c2cc1OC (tested in a mixture with another compound)
inactive: dose: 18.75 mg/kg/injection, vehicle: saline with Tween-80 104 % of control | [1] 117 % of control | [2] 112 % of control | [3] 110 % of control | dose: 75.0 mg/kg/injection, vehicle: saline with Tween-80 99 % of control | [4] 105 % of control

COC1=CCC23C(=O)C=CC(=O)C2(C1)C(=O)c1ccccc1C3=O (stereo unspecified)
inactive: dose: 1.5 mg/kg/injection, vehicle: saline with Tween-80 110 % of control | dose: 3.0 mg/kg/injection, vehicle: saline with Tween-80 95 % of control | dose: 6.0 mg/kg/injection, vehicle: saline with Tween-80 94 % of control | dose: 12.0 mg/kg/injection, vehicle: saline with Tween-80 98 % of control | dose: 24.0 mg/kg/injection, vehicle: saline with Tween-80 108 % of control

c1ccc(OCC2CO2)c(OCC2CO2)c1 (stereo unspecified)
active: [5] 156 % of control and 173 % of control
inactive: [3] 111 % of control and 121 % of control | [4] 118 % of control and 123 % of control

CCCC1CCC(=C2C(=O)CCC2=O)O1 (stereo unspecified)
inactive: [1] 101 % of control | [3] 95 % of control | [4] 96 % of control

CC(=O)OCCN1CCOC(O)(c2cccc(C(F)(F)F)c2)C1 (stereo unspecified)
inactive: dose: 11.25 mg/kg/injection, vehicle: saline with Tween-80 97 % of control | dose: 22.5 mg/kg/injection, vehicle: saline with Tween-80 96 % of control | dose: 45.0 mg/kg/injection, vehicle: saline with Tween-80 97 % of control | dose: 90.0 mg/kg/injection, vehicle: saline with Tween-80 100 % of control | dose: 180.0 mg/kg/injection, vehicle: saline with Tween-80 98 % of control

O=C(NCc1ccccc1)C1C(=O)C(=O)N(Cc2ccccc2)C1=O (stereo unspecified)
inactive: [6] 92 % of control | [7] 102 % of control | [8] 100 % of control | [9] 100 % of control | [10] 96 % of control

CN(C)CCNC1=C(Cl)C(=O)c2ccccc2C1=O
inactive: dose: 1.5 mg/kg/injection, vehicle: saline 91 % of control | dose: 3.0 mg/kg/injection, vehicle: saline 98 % of control | dose: 6.0 mg/kg/injection, vehicle: saline 89 % of control | dose: 12.0 mg/kg/injection, vehicle: saline 105 % of control | dose: 12.5 mg/kg/injection, vehicle: saline 106 % of control

C=Cc1cc(OC)c2c(c1)c(=O)oc1c2cc(OC)c2c(O)ccc(C3OC(C(C)O)C(O)C3O)c21 (stereo unspecified)
inactive: [6] 109 % of control | [7] 115 % of control | [8] 110 % of control

O=C1N2CCNc3ccccc3C(c3ccccc3)N1CC2 (stereo unspecified)
inactive: dose: 6.25 mg/kg/injection, vehicle: Klucel (hydroxypropylcellulose) (HPC) 117 % of control | dose: 12.5 mg/kg/injection, vehicle: Klucel (hydroxypropylcellulose) (HPC) 103 % of control | dose: 25.0 mg/kg/injection, vehicle: Klucel (hydroxypropylcellulose) (HPC) 106 % of control

S=c1sc(-c2ccc(Cl)cc2)nn1CSc1nc2ccccc2o1
inactive: [2] 86 % of control | dose: 300.0 mg/kg/injection, vehicle: saline with Tween-80 94 % of control

CN(C)c1cc2c(nn1)Nc1ccccc1S2
inactive: [3] 88 % of control | [4] 88 % of control | [5] 97 % of control | dose: 800.0 mg/kg/injection, vehicle: saline with Tween-80 90 % of control

O=C(O)C(O)C(O)C1[O][Sb][O]C1C(=O)O (stereo unspecified)
inactive: dose: 9.37 mg/kg/injection, vehicle: saline 100 % of control | dose: 9.38 mg/kg/injection, vehicle: saline 107 % of control | dose: 18.75 mg/kg/injection, vehicle: saline 99 % of control and 110 % of control | dose: 37.5 mg/kg/injection, vehicle: saline 110 % of control and 114 % of control | dose: 75.0 mg/kg/injection, vehicle: saline 99 % of control and 111 % of control

CCOC(=O)c1c[nH]c2ccc3c(nc(C)n3C)c2c1=O
inactive: [6] 101 % of control | [7] 104 % of control | [8] 101 % of control | [9] 98 % of control | [10] 103 % of control

CC(=O)Nc1ccc(Nc2ccc(C(=C3C=CC(=[N+](C)CCC#N)C=C3)c3ccc(N(C)CCC#N)cc3)cc2)cc1
inactive: [11] 101 % of control | [1] 101 % of control | [3] 99 % of control | [4] 100 % of control | [5] 92 % of control

O=C1C(=O)c2cccnc2-c2ncccc21
inactive: dose: 0.38 mg/kg/injection, vehicle: Klucel (hydroxypropylcellulose) (HPC) 101 % of control | dose: 0.75 mg/kg/injection, vehicle: Klucel (hydroxypropylcellulose) (HPC) 109 % of control | dose: 1.5 mg/kg/injection, vehicle: Klucel (hydroxypropylcellulose) (HPC) 104 % of control | dose: 3.0 mg/kg/injection, vehicle: Klucel (hydroxypropylcellulose) (HPC) 105 % of control | dose: 6.0 mg/kg/injection, vehicle: Klucel (hydroxypropylcellulose) (HPC) 110 % of control

CN=NN(C)C(=O)NC
active: dose: 25.0 mg/kg/injection, vehicle: saline 158 % of control | dose: 30.0 mg/kg/injection, vehicle: saline 160 % of control | dose: 50.0 mg/kg/injection, vehicle: saline 151 % of control and 152 % of control and 177 % of control | dose: 83.0 mg/kg/injection, vehicle: saline 160 % of control and 162 % of control

COc1cc(NCc2ccc3nc(N)nc(N)c3c2C)cc(OC)c1OC
inactive: dose: 7.5 mg/kg/injection, vehicle: Klucel (hydroxypropylcellulose) (HPC) 117 % of control and 122 % of control
active: dose: 30.0 mg/kg/injection, vehicle: Klucel (hydroxypropylcellulose) (HPC) 152 % of control and 154 % of control | dose: 60.0 mg/kg/injection, vehicle: Klucel (hydroxypropylcellulose) (HPC) 162 % of control and 172 % of control and 179 % of control | dose: 120.0 mg/kg/injection, vehicle: Klucel (hydroxypropylcellulose) (HPC) 167 % of control

O=C(Nc1nc(-c2ccccc2)cs1)OCC(Cl)(Cl)Cl
inactive: [1] 103 % of control | [3] 107 % of control | [4] 94 % of control | [5] 91 % of control | [12] 91 % of control

N=C(N)c1ccc(N=NNc2ccc(C(=N)N)cc2)cc1
inactive: [1] 96 % of control | [3] 97 % of control

Cc1cc(C(F)(F)F)nc2nc3ccccc3n12
inactive: dose: 37.5 mg/kg/injection, vehicle: Klucel (hydroxypropylcellulose) (HPC) 100 % of control | dose: 75.0 mg/kg/injection, vehicle: Klucel (hydroxypropylcellulose) (HPC) 95 % of control | dose: 150.0 mg/kg/injection, vehicle: Klucel (hydroxypropylcellulose) (HPC) 96 % of control | dose: 300.0 mg/kg/injection, vehicle: Klucel (hydroxypropylcellulose) (HPC) 95 % of control

NNC(=O)c1ccc(OCc2nc3ccccc3[nH]2)cc1
inactive: [1] 99 % of control | [3] 102 % of control | [4] 101 % of control | [5] 106 % of control | [12] 97 % of control

O=NNc1cccnc1
inactive: dose: 12.5 mg/kg/injection, vehicle: water 99 % of control and 119 % of control | dose: 25.0 mg/kg/injection, vehicle: water 110 % of control and 113 % of control | dose: 50.0 mg/kg/injection, vehicle: water 97 % of control and 110 % of control | dose: 100.0 mg/kg/injection, vehicle: water 124 % of control

CC(C)CC(NC(=O)CF)C(=O)O (stereo unspecified)
inactive: dose: 1.56 mg/kg/injection, vehicle: saline with Tween-80 98 % of control | dose: 3.12 mg/kg/injection, vehicle: saline with Tween-80 102 % of control | dose: 6.25 mg/kg/injection, vehicle: saline with Tween-80 95 % of control | [11] 97 % of control

— PubChem BioAssay AID292 (DTP/NCI, 2004)
